The data set has as its target ATP-dependent translocase ABCB1 (Homo sapiens, UniProt P08183). Kind of data set: TP_TRANSPORTER: ATP hydrolysis in MDR1-expressing Sf9 cells. It counts as functional.

These results are taken from ChEMBL document CHEMBL2074227, “Antiestrogens and steroid hormones: substrates of the human P-glycoprotein” (Biochem Pharmacol, 1994).

ATP-dependent translocase ABCB1, sequence (P08183 whole entry): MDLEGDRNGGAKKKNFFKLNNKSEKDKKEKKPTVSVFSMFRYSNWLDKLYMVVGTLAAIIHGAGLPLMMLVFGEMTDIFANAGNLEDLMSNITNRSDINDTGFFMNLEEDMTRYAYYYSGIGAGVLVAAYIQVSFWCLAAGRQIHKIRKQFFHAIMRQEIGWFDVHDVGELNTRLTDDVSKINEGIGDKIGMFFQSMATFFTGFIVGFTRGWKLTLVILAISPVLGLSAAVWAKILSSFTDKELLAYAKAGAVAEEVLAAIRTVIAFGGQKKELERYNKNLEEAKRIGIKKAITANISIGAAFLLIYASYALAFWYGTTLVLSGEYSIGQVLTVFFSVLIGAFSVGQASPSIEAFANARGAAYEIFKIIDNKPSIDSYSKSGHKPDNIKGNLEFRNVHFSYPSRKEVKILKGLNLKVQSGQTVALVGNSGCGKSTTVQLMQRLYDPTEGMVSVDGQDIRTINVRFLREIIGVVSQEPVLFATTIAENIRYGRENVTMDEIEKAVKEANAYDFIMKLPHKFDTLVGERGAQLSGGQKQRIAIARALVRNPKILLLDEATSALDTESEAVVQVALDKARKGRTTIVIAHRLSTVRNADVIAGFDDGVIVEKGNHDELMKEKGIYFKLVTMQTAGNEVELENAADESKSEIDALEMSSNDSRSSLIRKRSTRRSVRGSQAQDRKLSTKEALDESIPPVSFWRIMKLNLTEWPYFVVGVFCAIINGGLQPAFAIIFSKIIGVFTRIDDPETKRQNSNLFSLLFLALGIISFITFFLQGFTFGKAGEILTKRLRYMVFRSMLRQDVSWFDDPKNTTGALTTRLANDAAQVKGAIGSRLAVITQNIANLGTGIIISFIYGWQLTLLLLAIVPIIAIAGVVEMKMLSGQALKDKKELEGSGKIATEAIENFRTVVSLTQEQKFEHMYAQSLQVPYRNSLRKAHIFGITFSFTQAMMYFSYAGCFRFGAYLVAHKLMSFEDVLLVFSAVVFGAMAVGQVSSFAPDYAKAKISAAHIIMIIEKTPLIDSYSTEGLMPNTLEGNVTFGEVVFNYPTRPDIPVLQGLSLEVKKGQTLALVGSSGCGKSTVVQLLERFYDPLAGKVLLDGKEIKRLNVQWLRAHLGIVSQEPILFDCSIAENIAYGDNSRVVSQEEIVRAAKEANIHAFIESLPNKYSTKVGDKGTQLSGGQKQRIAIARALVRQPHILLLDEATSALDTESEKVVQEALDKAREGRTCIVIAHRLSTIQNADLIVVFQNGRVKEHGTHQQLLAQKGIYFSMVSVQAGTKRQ

As for `C[C@]12CC[C@@H]3c4ccc(O)cc4CC[C@H]3[C@@H]1CC[C@@H]2O` [ESTRADIOL], the Activity result is “substrate [+]”. In the case of `CCN(CC)CCOc1ccc(C(=C(Cl)c2ccccc2)c2ccccc2)cc1` [CLOMIPHENE] it was “substrate [+]”; in that of `CC/C(=C(\c1ccccc1)c1ccc(OCCN)cc1)c1ccccc1` [DESMETHYL TAMOXIFEN], “substrate [+]”. In the case of `CCC(=C(c1ccc(O)cc1)c1ccc(OCCN(C)C)cc1)c1ccccc1` it was “substrate [+]”; in that of `C[C@]12C[C@H](O)[C@H]3[C@@H](CCC4=CC(=O)CC[C@@]43C)[C@@H]1CC[C@@H]2C(=O)CO` [CORTICOSTERONE], “substrate [+]”. In the case of `CC/C(=C(/CC)c1ccc(O)cc1)c1ccc(O)cc1` [DIETHYLSTILBESTROL] it was “substrate [+]”; in that of `CC/C(=C(/c1ccc(OCCN(C)C)cc1)c1cccc(O)c1)c1ccccc1` [DROLOXIFENE], “substrate [+]”; in that of `COc1ccc2c(c1)CCC(c1ccccc1)=C2c1ccc(OCCN2CCCC2)cc1` [NAFOXIDINE], “substrate [+]”. With `CN(C)CCOc1ccc(/C(=C(/CCCl)c2ccccc2)c2ccccc2)cc1` [TOREMIFENE], the Activity result was “substrate [+]”.
